Assay results: patent US20260042764A1, “COMPOSITIONS AND METHODS FOR INHIBITION OF KRAS” (TheRas, Inc., priority 2022, published 2026)
pIC50: −log10 of the molar value.

Columns and labels:
[1] = molecular target: T1, Avi-KRAS G12V (1-169) GppNHp/RAF1 RBD-3xFLAG (52-151) (Homo sapiens, UniProt P01116, G12V); assay: Raf1-KRAS G12V-GppNHP disruption HTRF assay (Biological Example 1); format: binding
T1 construct: Avi-KRAS G12V (1-169)
Procedure, shortened: (§1)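 Percent activity versus DMSO (100%) was derived from HTRF signal after KRAS–RAF1 RBD protein mix was incubated 1 h at room temperature with shaking and detection reagents were added for a further 1 h.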

[2] = molecular target: T2, Avi-KRAS WT (1-169) GppNHp/RAF1 RBD-3xFLAG (52-151) (Homo sapiens, UniProt P01116); assay: Raf1-KRAS WT-GppNHP disruption HTRF assay (Biological Example 1); format: binding
T2 construct: Avi-KRAS WT (1-169)
Procedure, shortened: as §1

[3] = tested on: SW620 cells (KRAS G12V); assay: Cell-based pERK HTRF assay in SW620 cell (Biological Example 4); settings: pERK HTRF
Procedure, shortened: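 In SW620 cells grown in RPMI with 10% FBS, a 4 h compound treatment (0.25% DMSO, 9-point curve from 1 μM) preceded lysis. Phospho-ERK levels were then read by time-resolved FRET at 615 nm emission.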

[4] = molecular target: T3, Avi-KRAS G12R (1-169) GppNHp/RAF1 RBD-3xFLAG (52-151) (Homo sapiens, UniProt P01116, G12R); assay: Raf1-KRAS G12R-GppNHP disruption HTRF assay (Biological Example 1); format: binding
T3 construct: Avi-KRAS G12R (1-169)
Procedure, shortened: as §1

[5] = tested on: GP2d cells (KRAS G12D); assay: Cell-based pERK HTRF assay in GP2d cell (Biological Example 2); settings: GP2d (KRAS G12D) cells, pERK HTRF
Procedure, shortened: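 GP2d (KRAS G12D) cells were plated in DMEM/10% FBS and treated the next day for 60 min with compounds. Dosing used 9-point half-log series starting at 1 μM or 100 nM in 0.25% DMSO. Lysates were read by HTRF pERK (d2/Eu cryptate antibodies) after 4–24 h at room temperature, with excitation at 320 nm and emission at 615 nm.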

[6] = molecular target: T4, Avi-KRAS G12D (1-169) GppNHp/RAF1 RBD-3xFLAG (52-151) (Homo sapiens, UniProt P01116, G12D); assay: Raf1-KRAS G12D-GppNHP disruption HTRF assay (Biological Example 1); format: binding
T4 construct: Avi-KRAS G12D (1-169)
Procedure, shortened: as §1

[7] = Homo sapiens, SW-620, SW620 (KRAS G12V) cells
[8] = KRAS G12V, GppNHp-loaded, Table 11
[9] = KRAS WT, GppNHp-loaded, Table 11
[10] = KRAS G12R, GppNHp-loaded, Table 11
[11] = KRAS G12D, GppNHp-loaded, Table 11
[12] = KRAS G12V, GppNHp-loaded, class symbols
[13] = KRAS WT, GppNHp-loaded, class symbols
[14] = Homo sapiens, SW-620, SW620 (KRAS G12V) cells, class symbols
[15] = KRAS G12R, GppNHp-loaded, class symbols
[16] = KRAS G12D, GppNHp-loaded, class symbols

T3 sequence (P01116 1-169 isoform P01116-2 G12R): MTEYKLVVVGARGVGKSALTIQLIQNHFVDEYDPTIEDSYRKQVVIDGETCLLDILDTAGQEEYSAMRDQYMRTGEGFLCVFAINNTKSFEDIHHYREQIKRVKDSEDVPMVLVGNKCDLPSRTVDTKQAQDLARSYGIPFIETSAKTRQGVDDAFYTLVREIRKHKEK
T1 sequence (P01116 1-169 isoform P01116-2 G12V): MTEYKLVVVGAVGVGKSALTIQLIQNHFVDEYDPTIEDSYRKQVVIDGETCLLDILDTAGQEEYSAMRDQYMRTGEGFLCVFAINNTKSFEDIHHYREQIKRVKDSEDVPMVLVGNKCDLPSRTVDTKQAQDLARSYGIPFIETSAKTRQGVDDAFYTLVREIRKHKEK
T4 sequence (P01116 1-169 isoform P01116-2 G12D): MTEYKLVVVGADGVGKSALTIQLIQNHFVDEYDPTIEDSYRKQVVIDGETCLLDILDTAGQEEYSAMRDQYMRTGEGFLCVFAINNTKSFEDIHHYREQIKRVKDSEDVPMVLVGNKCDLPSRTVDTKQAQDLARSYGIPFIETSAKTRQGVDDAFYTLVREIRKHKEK
T2 sequence (P01116 1-169 isoform P01116-2): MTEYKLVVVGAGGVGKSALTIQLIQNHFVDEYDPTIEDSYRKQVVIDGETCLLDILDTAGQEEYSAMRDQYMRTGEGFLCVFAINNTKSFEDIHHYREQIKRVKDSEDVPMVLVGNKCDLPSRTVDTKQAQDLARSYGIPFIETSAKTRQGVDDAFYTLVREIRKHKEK

SMILES | pIC50 ([1]; KRAS G12V-GppNHp/RAF1 RBD HTRF) | pIC50 ([2]; KRAS WT-GppNHp/RAF1 RBD HTRF) | pIC50 [3, 7] | pIC50 ([4]; KRAS G12R-GppNHp/RAF1 RBD HTRF) | pIC50 ([5]; GP2d) | pIC50 ([6]; KRAS G12D-GppNHp/RAF1 RBD HTRF) | pIC50 [1, 12] | pIC50 [2, 13] | pIC50 [3, 14] | pIC50 [4, 15] | pIC50 ([5]; GP2d, class symbols) | pIC50 [6, 16] | further results
N#Cc1c(N)sc2c(F)ccc(-c3c(C(F)(F)F)cc4c(N5CCN6C(=O)CCC6C5)nc(OCC56CCCN5CC(F)C6)nc4c3F)c12 (stereo not drawn) [Compound 412] | 6.00 to 7.00 | 6.00 to 7.00 | > 7.00 | 6.00 to 7.00 | > 7.00 | 6.00 to 7.00 | – | – | – | – | – | – | –
CC(=O)N1C[C@@H](N(C)c2nc(OC[C@@]34CCCN3C[C@H](F)C4)nc3c(F)c(-c4ccc(F)c5sc(N)c(C#N)c45)c(C(F)(F)F)cc23)C[C@H]1CC#N [Compound 503] | 5.00 to 6.00 | 5.00 to 6.00 | 6.00 to 7.00 | 5.00 to 6.00 | > 7.00 | 6.00 to 7.00 | – | – | – | – | – | – | –
CN(c1nc(OC[C@@]23CCCN2C[C@H](F)C3)nc2c(F)c(-c3ccc(F)c4sc(N)c(C#N)c34)c(C(F)(F)F)cc12)[C@H]1CCS(=O)(=O)C1 (single isomer, unassigned) [Compound 220] | – | – | – | – | – | – | – | – | – | – | – | – | pIC50 [1, 8]: < 5.00; pIC50 [2, 9]: < 5.00; pIC50 ([3]; SW620 (KRAS G12V) cells): < 6.00; pIC50 [4, 10]: < 5.00; pIC50 [5]: < 6.00; pIC50 [6, 11]: < 5.00
CCN(c1nc(OC[C@@]23CCCN2C[C@H](F)C3)nc2c(F)c(-c3ccc(F)c4sc(N)c(C#N)c34)c(C(F)(F)F)cc12)[C@H]1CCN(C(=O)c2cn(C)nn2)C1 (atropisomer, axis not shown) [Compound 725] | – | – | – | – | – | – | > 7.00 | > 7.00 | > 7.00 | > 7.00 | > 7.00 | > 7.00 | –
CC(=O)N1CCN(c2nc(OC[C@@]34CCCN3C[C@H](F)C4)nc3c(F)c(-c4ccc(F)c5sc(N)c(C#N)c45)c(C(F)(F)F)cc23)[C@@H](C)C1 [Compound 230] | – | – | > 7.00 | – | > 7.00 | – | – | – | – | – | – | – | pIC50 [1, 8]: 5.00 to 6.00; pIC50 [2, 9]: 6.00 to 7.00; pIC50 [4, 10]: 5.00 to 6.00; pIC50 [6, 11]: 6.00 to 7.00
N#Cc1c(N)sc2c(F)ccc(-c3c(C(F)(F)F)cc4c(N(C5CC5)[C@H]5CCN(C(=O)N6CC(F)C6)C5)nc(OC[C@@]56CCCN5C[C@H](F)C6)nc4c3F)c12 (atropisomer, axis not shown) [Compound 813] | – | – | – | – | – | – | 6.00 to 7.00 | 6.00 to 7.00 | > 7.00 | 6.00 to 7.00 | > 7.00 | > 7.00 | –
CCC(=O)N1CC[C@@H](N(C)c2nc(OC[C@]34CCCN3C[C@H](F)C4)nc3c(F)c(-c4ccc(F)c5sc(N)c(C#N)c45)c(C(F)(F)F)cc23)[C@H]1C (atropisomer, axis not shown) [Compound 336] | < 5.00 | 5.00 to 6.00 | 6.00 to 7.00 | < 5.00 | 6.00 to 7.00 | 5.00 to 6.00 | – | – | – | – | – | – | –
C[C@@H]1[C@H](N(C)c2nc(OC[C@@]34CCCN3C[C@H](F)C4)nc3c(F)c(-c4ccc(F)c5sc(N)c(C#N)c45)c(C(F)(F)F)cc23)CCN1C(=O)N(C)C [Compound 409] | 6.00 to 7.00 | 6.00 to 7.00 | > 7.00 | 6.00 to 7.00 | > 7.00 | 6.00 to 7.00 | – | – | – | – | – | – | –
CC(C)C(=O)N1C[C@@H](N(C)c2nc(OC[C@@]34CCCN3C[C@H](F)C4)nc3c(F)c(-c4ccc(F)c5sc(N)c(C#N)c45)c(C(F)(F)F)cc23)C[C@@H]1C [Compound 436] | 5.00 to 6.00 | 5.00 to 6.00 | > 7.00 | 6.00 to 7.00 | > 7.00 | 5.00 to 6.00 | – | – | – | – | – | – | –
CN(c1nc(OC[C@@]23CCCN2C[C@H](F)C3)nc2c(F)c(-c3ccc(F)c4sc(N)c(C#N)c34)c(C(F)(F)F)cc12)[C@@H]1CC[C@H](O)C1 [Compound 315] | 5.00 to 6.00 | 6.00 to 7.00 | > 7.00 | 5.00 to 6.00 | > 7.00 | 6.00 to 7.00 | – | – | – | – | – | – | –
CCN(c1nc(OC[C@@]23CCCN2C[C@H](F)C3)nc2c(F)c(-c3ccc(F)c4sc(N)c(C#N)c34)c(C(F)(F)F)cc12)[C@H]1CCN(C(=O)C(C)(F)F)C1 (atropisomer, axis not shown) [Compound 587] | – | – | – | – | – | – | > 7.00 | > 7.00 | > 7.00 | > 7.00 | > 7.00 | > 7.00 | –
CCN(c1nc(OC[C@@]23CCCN2C[C@H](F)C3)nc2c(F)c(-c3ccc(F)c4sc(N)c(C#N)c34)c(C(F)(F)F)cc12)[C@H]1CCN(C(=O)N2CC(C#N)C2)C1 (atropisomer, axis not shown) [Compound 778] | – | – | – | – | – | – | > 7.00 | > 7.00 | > 7.00 | > 7.00 | > 7.00 | > 7.00 | –
C[C@]1(CO)CCN1c1nc(OC[C@@]23CCCN2C[C@H](F)C3)nc2c(F)c(-c3ccc(F)c4sc(N)c(C#N)c34)c(C(F)(F)F)cc12 [Compound 429] | 5.00 to 6.00 | 5.00 to 6.00 | > 7.00 | 5.00 to 6.00 | > 7.00 | 6.00 to 7.00 | – | – | – | – | – | – | –
C[C@H]1CC[C@@H](O)CN1c1nc(OC[C@@]23CCCN2C[C@H](F)C3)nc2c(F)c(-c3ccc(F)c4sc(N)c(C#N)c34)c(C(F)(F)F)cc12 [Compound 317] | 5.00 to 6.00 | 6.00 to 7.00 | > 7.00 | 6.00 to 7.00 | > 7.00 | 6.00 to 7.00 | – | – | – | – | – | – | –
CCN(c1nc(OC[C@@]23CCCN2C[C@H](F)C3)nc2c(F)c(-c3ccc(F)c4sc(N)c(C#N)c34)c(C(F)(F)F)cc12)[C@H]1C[C@H](COC)N(C(=O)N(C)C)C1 (atropisomer, axis not shown) [Compound 717] | – | – | – | – | – | – | 6.00 to 7.00 | 6.00 to 7.00 | > 7.00 | 6.00 to 7.00 | > 7.00 | 6.00 to 7.00 | –
CN(C)C(=O)c1cc2n(n1)CCCN(c1nc(OC[C@@]34CCCN3C[C@H](F)C4)nc3c(F)c(-c4ccc(F)c5sc(N)c(C#N)c45)c(C(F)(F)F)cc13)C2 [Compound 256] | – | – | > 7.00 | – | > 7.00 | – | – | – | – | – | – | – | pIC50 [1, 8]: 6.00 to 7.00; pIC50 [2, 9]: 6.00 to 7.00; pIC50 [4, 10]: 6.00 to 7.00; pIC50 [6, 11]: > 7.00
CCN(c1nc(OC[C@@]23CCCN2C[C@H](F)C3)nc2c(F)c(-c3ccc(F)c4sc(N)c(C#N)c34)c(C(F)(F)F)cc12)[C@H]1C[C@@H](COC)N(C(=O)OC)C1 (atropisomer, axis not shown) [Compound 714] | – | – | – | – | – | – | 6.00 to 7.00 | 6.00 to 7.00 | > 7.00 | 6.00 to 7.00 | > 7.00 | 6.00 to 7.00 | –
